{"source": "paper PMC6019266", "about": "(Biochemistry, 2017)", "key": {"[1]": {"target": "Rv0091 (Mycobacterium tuberculosis, UniProt P9WJM3)", "sequence (P9WJM3 whole entry, looked up)": "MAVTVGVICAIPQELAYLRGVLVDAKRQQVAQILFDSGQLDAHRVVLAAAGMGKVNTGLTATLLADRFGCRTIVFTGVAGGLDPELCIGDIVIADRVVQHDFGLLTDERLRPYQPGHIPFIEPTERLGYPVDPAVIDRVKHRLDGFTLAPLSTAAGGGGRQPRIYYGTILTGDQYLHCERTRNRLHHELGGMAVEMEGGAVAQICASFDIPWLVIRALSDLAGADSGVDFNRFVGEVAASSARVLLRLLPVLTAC", "test": "Dissociation constants", "type": "biochemical"}, "[2]": {"test_system": "auto-inducer (AI-2) production", "details": "cited from earlier work"}, "[3]": {"test_system": "E. coli", "details": "cited from earlier work"}, "[4]": {"test_system": "Vibrio cholerae", "details": "cited from earlier work"}, "[5]": {"test_system": "M. smegmatis strain mc^2155", "test": "Disc-diffusion growth inhibition assay", "type": "cell-based, Mycobacterium smegmatis", "details": "96 h, 37 °C"}, "[6]": {"test_system": "M. tuberculosis strain mc^26230", "type": "cell-based, Mycobacterium tuberculosis", "details": "disc diffusion, 96 h, 37 °C"}, "[7]": {"test_system": "H. pylori (J99)", "test": "Antibacterial activity assay in liquid culture", "type": "cell-based, Helicobacter pylori"}}, "note": "Like-named read-outs stand apart in the source and are kept apart here."}
{"smiles": "CCCCSCC1CN(Cc2c[nH]c3c(N)ncnc23)C[C@H]1O", "note": "(stereo partly drawn) [Compound 13]", "values": [{"measurement": "weaker binding than HT-DADMe-ImmA", "setting": "[1]; ratio of dissociation constants", "value": 15, "unit": "times"}, {"measurement": "effect on production of auto-inducer (AI-2)", "setting": "[2]", "value": "inhibited production"}, {"measurement": "toxicity to growth", "setting": "[3]", "value": "not toxic"}, {"measurement": "toxicity to growth", "setting": "[4]", "value": "not toxic"}]}
{"smiles": "CCCCCCSC[C@H]1CN(Cc2c[nH]c3c(N)ncnc23)C[C@@H]1O", "note": "[Compound 14]", "values": [{"measurement": "bound tighter than MT-DADMe-ImmA (11)", "setting": "[1]; ratio of Ki values, Table 1", "value": 17, "unit": "times"}, {"measurement": "zone of clearance", "setting": "[5]; 1000 μg/mL", "value": "small zone of clearance"}, {"measurement": "zone of clearance", "setting": "[6]; 1000 μg/mL", "value": "small zone of clearance"}, {"measurement": "more potent than tetracycline", "setting": "[7]", "value": 6, "unit": "times"}, {"measurement": "IC50 (antibacterial activity; MIC50 in methods)", "setting": "[7]; 72 h, 37 °C, OD600", "value": "0.013 ± 0.0018", "unit": "µg/mL"}]}
{"smiles": "CSC[C@@H]1CN(Cc2c[nH]c3c(N)ncnc23)C[C@H]1O", "note": "[Compound 20]", "values": [{"measurement": "activity toward Rv0091", "setting": "[1]; at concentrations of ≤400 μM", "value": "no activity"}]}
{"smiles": "NC[C@H]1O[C@H](O[C@H]2[C@H](O)[C@@H](O[C@H]3O[C@H](CO)[C@@H](O)[C@H](N)[C@H]3O)[C@H](N)C[C@@H]2N)[C@H](O)[C@@H](O)[C@@H]1O", "note": "[Kanamycin, reference compound]", "values": [{"measurement": "zone of clearance", "setting": "[5]; 100 μg/mL, antibiotic control", "value": "large zones of clearance"}, {"measurement": "zone of clearance", "setting": "[6]; 100 μg/mL, antibiotic control", "value": "large zones of clearance"}]}
